Calls of active or inactive are those of the source. No cut-off for these calls is given here.
What was measured:
DU-145 [1] = assay: Growth inhibition of Homo sapiens (human) DU145 cells at 0.5 ug/ml after 48 hr by MTT assay; type: functional; settings: for inhibition of growth at 0.5 µg/mL: DU-145, 48 h, read-out: GI
DU-145 [2] = assay: Cytotoxicity against Homo sapiens (human) DU145 cells after 48 hr by MTT assay; type: functional, cell-based
Rattus norvegicus = assay: Inhibition of 5alpha-reductase in Rattus norvegicus Sprague-Dawley (rat) assessed as increase in serum testosterone at 40 mg/kg, ip after 6 hr by ELISA; type: functional, organism-based; set-up: dose 40 mg/kg
DU-145 [3] = assay: Growth inhibition of Homo sapiens (human) DU145 cells at 0.01 ug/ml after 48 hr by MTT assay; type: functional; settings: for inhibition of growth at 0.01 µg/mL: DU-145, 48 h, read-out: GI
DU-145 [4] = assay: Growth inhibition of Homo sapiens (human) DU145 cells at 5 ug/ml after 48 hr by MTT assay; type: functional; settings: for inhibition of growth at 5 µg/mL: DU-145, 48 h, read-out: GI
DU-145 [5] = assay: Growth inhibition of Homo sapiens (human) DU145 cells at 2 ug/ml after 48 hr by MTT assay; type: functional; settings: for inhibition of growth at 2 µg/mL: DU-145, 48 h, read-out: GI
[6] = Cytotoxicity against Mus musculus Balb/c (mouse) macrophages after 24 hr by MTT assay; type: cell-based, Macrophage; settings: read-out: LC50
DU-145 [7] = assay: Growth inhibition of Homo sapiens (human) DU145 cells at 1 ug/ml after 48 hr by MTT assay; type: functional; settings: for inhibition of growth at 1 µg/mL: DU-145, 48 h, read-out: GI
[8] = Homo sapiens, DU-145, 48 h, read-out: IC50

SMILES: C[C@]12CC[C@H](OC(=O)Cc3ccccc3)CC1=CC[C@@H]1[C@@H]2CC[C@]2(C)/C(=N/O)CC[C@@H]12
- growth inhibition (GI) (DU-145 [1]): inactive
- IC50 (DU-145 [2]; [8]): 6.5 µM
- inhibition (Rattus norvegicus): Active
- growth inhibition (GI) (DU-145 [3]): inactive
- growth inhibition (GI) (DU-145 [4]): inactive
- growth inhibition (GI) (DU-145 [5]): inactive
- CC50 at 24 h [6]: 11.8 µM
- growth inhibition (GI) (DU-145 [7]): inactive

SMILES: C[C@]12CC[C@H](OC(=O)c3ccc(Cl)cc3)CC1=CC[C@@H]1[C@@H]2CC[C@]2(C)/C(=N/O)CC[C@@H]12
- IC50 (DU-145 [2]; [8]): 3.4 µM
- inhibition (Rattus norvegicus): Active
- inhibition of growth at 5 µg/mL (DU-145 [4]): 84.5%
- CC50 at 24 h [6]: 24 µM

SMILES: C[C@]12CC[C@H](OC(=O)c3ccc(O)cc3)CC1=CC[C@@H]1[C@@H]2CC[C@]2(C)/C(=N/O)CC[C@@H]12
- IC50 (DU-145 [2]; [8]): 2.9 µM
- inhibition (Rattus norvegicus): inactive
- inhibition of growth at 5 µg/mL (DU-145 [4]): 91.5%
- CC50 at 24 h [6]: 22 µM

SMILES: C[C@]12CC[C@H](OC(=O)c3ccccc3)CC1=CC[C@@H]1[C@@H]2CC[C@]2(C)/C(=N/O)CC[C@@H]12
- IC50 (DU-145 [2]; [8]): 3.8 µM
- inhibition (Rattus norvegicus): Active
- inhibition of growth at 5 µg/mL (DU-145 [4]): 91.1%
- CC50 at 24 h [6]: 89.4 µM

SMILES: CC(C)(C)NC(=O)[C@H]1CC[C@H]2[C@@H]3CC[C@H]4NC(=O)C=C[C@]4(C)[C@H]3CC[C@]12C [FINASTERIDE]
- inhibition (Rattus norvegicus): Active
- inhibition of growth at 0.01 µg/mL (DU-145 [3]): 5%
- inhibition of growth at 5 µg/mL (DU-145 [4]): 78.5%
- inhibition of growth at 2 µg/mL (DU-145 [5]): 36%
- CC50 at 24 h [6]: 28.2 µM

SMILES: C[C@]12CC[C@H](OC(=O)c3ccc([N+](=O)[O-])cc3)CC1=CC[C@@H]1[C@@H]2CC[C@]2(C)/C(=N/O)CC[C@@H]12
- IC50 (DU-145 [2]; [8]): 3.07 µM
- inhibition (Rattus norvegicus): Active
- inhibition of growth at 5 µg/mL (DU-145 [4]): 81.5%
- CC50 at 24 h [6]: 19.5 µM

SMILES: C[C@]12CC[C@H](OC(=O)CCl)CC1=CC[C@@H]1[C@@H]2CC[C@]2(C)/C(=N/O)CC[C@@H]12
- inhibition of growth at 0.5 µg/mL (DU-145 [1]): 55%
- IC50 (DU-145 [2]; [8]): 4.8 µM
- inhibition (Rattus norvegicus): Active
- inhibition of growth at 0.01 µg/mL (DU-145 [3]): 53%
- inhibition of growth at 5 µg/mL (DU-145 [4]): 59.2%
- inhibition of growth at 2 µg/mL (DU-145 [5]): 56%
- CC50 at 24 h [6]: 28 µM
- inhibition of growth at 1 µg/mL (DU-145 [7]): 56%

SMILES: C[C@]12CC[C@H](O)CC1=CC[C@@H]1[C@@H]2CC[C@]2(C)/C(=N/O)CC[C@@H]12
- growth inhibition (GI) (DU-145 [1]): inactive
- IC50 (DU-145 [2]; du-145): Not Active
- inhibition (Rattus norvegicus): Active
- growth inhibition (GI) (DU-145 [3]): inactive
- growth inhibition (GI) (DU-145 [4]): inactive
- growth inhibition (GI) (DU-145 [5]): inactive
- growth inhibition (GI) (DU-145 [7]): inactive

SMILES: C[C@]12CC[C@H](OC(=O)COc3ccccc3)CC1=CC[C@@H]1[C@@H]2CC[C@]2(C)/C(=N/O)CC[C@@H]12
- IC50 (DU-145 [2]; [8]): 6.3 µM
- inhibition (Rattus norvegicus): Active
- CC50 at 24 h [6]: 89 µM

SMILES: COc1ccc(C(=O)O[C@H]2CC[C@@]3(C)C(=CC[C@@H]4[C@@H]3CC[C@]3(C)/C(=N/O)CC[C@@H]43)C2)cc1
- inhibition of growth at 0.5 µg/mL (DU-145 [1]): 51.4%
- IC50 (DU-145 [2]; [8]): 5.4 µM
- inhibition (Rattus norvegicus): inactive
- inhibition of growth at 0.01 µg/mL (DU-145 [3]): 30.7%
- inhibition of growth at 5 µg/mL (DU-145 [4]): 69.5%
- inhibition of growth at 2 µg/mL (DU-145 [5]): 65.6%
- CC50 at 24 h [6]: 14 µM
- inhibition of growth at 1 µg/mL (DU-145 [7]): 59.2%

SMILES: Cc1ccc(C(=O)O[C@H]2CC[C@@]3(C)C(=CC[C@@H]4[C@@H]3CC[C@]3(C)/C(=N/O)CC[C@@H]43)C2)cc1
- IC50 (DU-145 [2]; [8]): 2.3 µM
- inhibition (Rattus norvegicus): Active
- inhibition of growth at 5 µg/mL (DU-145 [4]): 92.9%
- CC50 at 24 h [6]: 22 µM

SMILES: C[C@]12CC[C@H](OC(=O)c3ccc(N)cc3)CC1=CC[C@@H]1[C@@H]2CC[C@]2(C)/C(=N/O)CC[C@@H]12
- IC50 (DU-145 [2]; [8]): 3.7 µM
- inhibition (Rattus norvegicus): Active
- inhibition of growth at 5 µg/mL (DU-145 [4]): 91%
- CC50 at 24 h [6]: 29.4 µM

Source: ChEMBL document CHEMBL3046642, “17-Oximino-5-androsten-3-yl esters: synthesis, antiproliferative activity, acute toxicity, and effect on serum androgen level” (Med Chem Res, 2011)
